Reference: patent publication US12415839B2, “IgE epitope-like peptides and uses thereof” (Univerza v Ljubljani, priority 2018, dated 2025)

These substances were tested on IgE of peanut allergic patients (assay: Immunodot assay with sera of peanut allergic patients). Conditions: peptide-pIII fusion proteins spotted on nitrocellulose, patient sera diluted 1:10, FIG. 3.
Assay type: binding, human
Method: Three selected IgE epitope-like peptides (ELP 2, ELP 5, ELP 6) were extracted as recombinant fusions with bacteriophage minor coat protein pIII from the periplasm of host bacteria with osmotic shock. Two target-unrelated control peptides also fused to protein pIII (binders to streptavidin and human leptin) were extracted in the same way and served as negative controls (C1, C2). Briefly, E. coli host bacteria were infected with individual phage clones and grown for 2 hours at 37° C. with agitation. Bacteria pellets were spun down at 5000×g for 10 min and resuspended in 1 ml of an ice-cold solution consisting of 20% sucrose, 200 mM Tris-HCl pH 8.0 and 1 mM EDTA supplemented with protease inhibitor cocktail (EZBlock™, BioVision, San Francisco, USA) at a dilution of 1:200. After 1 h incubation on ice with occasional stirring supernatants were harvested by centrifugation at 12000×g for 20 minutes at 4° C. Resulting periplasmic extracts containing […] fusion proteins were concentrated (4-5 fold) and sucrose buffer exchanged for PBS by ultrafiltration with 10 kDa cut-off membrane (Microsep Advance Centrifugal Device, Pall Corporation, New York, USA). For immunoprecipitation of each selected peptide, 20 μg of affinity purified rabbit IgG against Ara h 2 (INDOOR Biotechnologies, Charlottesville, Virginia, USA) were covalently coupled to 1 mg of Dynabeads M-280 Tosylactivated™ (Thermo Fisher Scientific) according to manufacturer's protocol. Control peptides were immunoprecipitated in the same way using 10 μg of anti-human leptin antibody (R and D Systems Cat #MAB398 RRID:AB_2136056) coupled to 1 mg of Dynabeads M-280 Tosylactivated™ in the case of peptide with the affinity toward human leptin and 0.5 mg of streptavidin-coupled beads (Dynabeads™ MyOne™ Streptavidin T1, Thermofisher Scientific) in the case of peptide with the affinity towards streptavidin. […]
“DHPRFNRDNDVA (IgE epitope-like peptide) [ELP 2]” was tested, and the “binding to IgE of peanut allergic patients” value (shortened to “binding to IgE”) was “bind to patients' IgE”. With “DHPRFST (IgE epitope-like peptide) [ELP 6]” the “binding to IgE” value was “bind to patients' IgE”. For “DHPRYGP (IgE epitope-like peptide) [ELP 5]”, the “binding to IgE” value was “bind to patients' IgE”.
